The structures appear in SMILES notation.

Chain of human DGAT1 (O75907 whole entry): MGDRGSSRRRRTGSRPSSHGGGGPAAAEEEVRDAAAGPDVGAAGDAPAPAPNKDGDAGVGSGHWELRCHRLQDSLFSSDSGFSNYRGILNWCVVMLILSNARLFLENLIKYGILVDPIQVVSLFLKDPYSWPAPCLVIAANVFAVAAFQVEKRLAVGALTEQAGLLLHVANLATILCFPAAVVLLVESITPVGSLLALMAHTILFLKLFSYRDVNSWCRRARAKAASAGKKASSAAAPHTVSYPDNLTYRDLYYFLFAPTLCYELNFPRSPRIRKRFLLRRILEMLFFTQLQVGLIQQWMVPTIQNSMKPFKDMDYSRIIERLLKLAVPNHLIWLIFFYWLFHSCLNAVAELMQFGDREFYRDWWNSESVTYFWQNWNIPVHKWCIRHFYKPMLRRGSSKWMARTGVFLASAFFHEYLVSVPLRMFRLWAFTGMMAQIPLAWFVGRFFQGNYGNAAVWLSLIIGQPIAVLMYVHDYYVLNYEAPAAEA

The test has as its target human DGAT1 (Homo sapiens (Human), UniProt O75907). In words: DGAT1 Inhibition Assay. The class given is biochemical. The following applies: membrane preparation from Sf9 cells overexpressing human (His)6DGAT1; LC/MS/MS readout. As for the experimental part: The enzyme preparation used in this assay is a membrane preparation from Sf9 cells overexpressing human (His)6DGAT1. During all steps samples were chilled to 4° C. Sf9 cells expressing human (His)6DGAT1 were thawed at room temperature and re-suspended at a 10:1 ratio (mL buffer/g of cells) in 50 mM HEPES, 1× Complete Protease Inhibitor, pH 7.5. The re-suspended pellet was homogenized for 1 min using a Brinkman PT 10/35 homogenizer with a 20 mm generator. Cells were lysed using Avestin Emulsiflex (chilled to 4° C.) at 10000-15000 psi. Lysate was centrifuged at 100,000×g for 1 h at 4° C. Supernatant was removed and pellets were re-suspended in 50 mM HEPES, 1× Complete Protease Inhibitor, pH 7.5 at ⅙ the volume of supernatant. Re-suspended pellets were pooled and homogenized with 10 strokes of a Glas-Col motor driven teflon pestle on setting 70. The protein concentration of the membrane preparation was quantified using BCA protein assay with 1% SDS. The membrane preparation was aliquoted, frozen on dry ice, and stored at −80° C.
For 50 mL, 25 mL of 0.2 M HEPES stock buffer, 0.5 mL of 1 M MgCl2 ([…]), and 24.5 mL of milli-Q H2O are added to the 55 mL Wheaton Potter-Elvehjem homogenizer. Enzyme preparation (0.1 mL) is added to buffer and the mixture is homogenized with 5 strokes on ice using the Glas-Col variable speed homogenizer system on setting 70.
For 50 mL, 0.5 mL 10 mM diolein is added to 9.5 mL of EtOH in a 50 mL Falcon screw cap conical centrifuge tube. Five mL of 10 mM sodium acetate pH 4.5 is added followed by 0.5 mL of 10 mM oleoyl-CoA. Finally, the remaining 4.5 mL of 10 mM sodium acetate pH 4.5 is added followed by 30 mL of milli-Q H20. The solution should be gently agitated by hand to induce mixing. The final concentrations of EtOH and sodium acetate are 20% and 2 mM, respectively.
Dry compounds are dissolved in the appropriate volume of DMSO to a final concentration of 10 mM. A 10-point, 3-fold dose response is used to evaluate compound potency. All dilutions are performed in DMSO in a Greiner 384-well microplate. • 1. 2 μL of compound in DMSO is added to the appropriate wells, 2 μL of DMSO is added to 100% activity and 100% inhibition controls. • 2. 25 μL of enzyme mix is added to all wells and plate(s) are incubated for 10 min at RT. • 3. 10 μL of 20% acetic acid quench is added to 100% inhibition control wells. Plate(s) are vortexed using Troemner multi-tube vortexer (setting 7 for 10 sec). • 4. 25 μL of substrate mix is added to all wells. Plate(s) are vortexed using Troemner multi-tube vortexer (setting 7 for 10 sec). Plate(s) are incubated for 30 min at RT. • 5. 10 μL of 20% acetic acid quench is added to all wells. Plate(s) are vortexed using Troemner multi-tube vortexer (setting 7 for 10 sec). • 6. 50 μL of 1-butanol w/glyceryl tripalmitoleate internal standard is added to all wells. • 7. Plate(s) are sealed with super pierce strong plate sealer using the thermo-sealer. • 8. Plate(s) are vortexed using Troemner multi-tube vortexer (setting 10 for 5 min). • 9. Plate(s) are centrifuged at 162×g (1000 rpm for GH-3.8 rotor) for 5 min using Beckman GS-6R tabletop centrifuge.
Samples were analyzed by LC/MS/MS using a Waters 1525μ LC and Quattro Micro API MS. Where indicated, tripalmitolein was used as an internal standard to control for instrument variation.
Data is converted to % inhibition prior to curve fitting using the following equation: […]
One may read the IC50 as the concentration at which inhibition is half-maximal. As to `O=C(Nc1cc(-c2ccccc2)c2ccccc2n1)C1CCCN1C(=O)CC1CCCC1` (stereo in doubt) [Example 8-1, (S)-1-(2-Cyclopentyl-acetyl)-pyrrolidine-2-carboxylic acid (4-phenyl-quinolin-2-yl)-amide], the IC50 worked out at 54.5 nM.
Under `CCOc1ccc(C(=O)NC(C)(C)C(=O)Nc2nc(-c3ccccc3)c(Cc3ccccc3)s2)cc1OCC` [Example 1-1, N-[1-(5-Benzyl-4-phenyl-thiazol-2-ylcarbamoyl)-1-methyl-ethyl]-3,4-diethoxy-benzamide] stands 60.5 nM.
The compound `CC(C)(NS(=O)(=O)c1ccc(F)cc1)C(=O)Nc1nc(-c2ccccc2)c(Cc2ccccc2)s1` [Example 1-6, N-(5-Benzyl-4-phenyl-thiazol-2-yl)-2-(4-fluoro-benzenesulfonylamino)-2-methyl-propionamide] came in with an IC50 of 241 nM.
Under `COc1ccccc1C(=O)NC(C)(C)C(=O)Nc1nc(-c2ccccc2)c(Cc2ccccc2)s1` [Example 1-8, N-[1-(5-Benzyl-4-phenyl-thiazol-2-ylcarbamoyl)-1-methyl-ethyl]-2-methoxy-benzamide] stands 8.5 nM.
`CC(C)(NC(=O)c1ccc2occc2c1)C(=O)Nc1nc(-c2ccccc2)c(Cc2ccccc2)s1` [Example 1-28, Benzofuran-5-carboxylic acid [1-(5-benzyl-4-phenyl-thiazol-2-ylcarbamoyl)-1-methyl-ethyl]-amide] showed a 50% inhibitory concentration (IC50) of 11 nM.
For the compound `CC(C)(NC(=O)c1ccccn1)C(=O)Nc1nc(-c2ccccc2)c(Cc2ccccc2)s1` [Example 1-29, Pyridine-2-carboxylic acid [1-(5-benzyl-4-phenyl-thiazol-2-ylcarbamoyl)-1-methyl-ethyl]-amide], the IC50 was 3.5 nM.
To `Cc1ccccc1NC(=O)N1CCCC1C(=O)Nc1nc(-c2ccccc2)c(Cc2ccccc2)s1` (stereo not shown) [Example 4-2, Pyrrolidine-1,2-dicarboxylic acid 2-[(5-benzyl-4-phenyl-thiazol-2-yl)-amide] 1-o-tolylamide] belongs 232 nM.
The compound `O=C(Nc1nc(-c2ccccc2)c(Cc2ccccc2)s1)[C@@H]1CCCN1C(=O)Nc1ccc(C(F)(F)F)cc1F` [Example 4-9, (S)-Pyrrolidine-1,2-dicarboxylic acid 2-[(5-benzyl-4-phenyl-thiazol-2-yl)-amide] 1-[(2-fluoro-4-trifluoromethyl-phenyl)-amide]] registered an IC50 of 473 nM.
Turning to `CC(C)(NC(=O)c1ccc(OC(F)(F)F)cc1)C(=O)Nc1nc(-c2ccc(F)cc2)c(Oc2ccc(F)cc2)s1` [Example 6-1, N-{1-[5-(4-Fluoro-phenoxy)-4-(4-fluoro-phenyl)-thiazol-2-ylcarbamoyl]-1-methyl-ethyl}-4-trifluoromethoxybenzamide], half-maximal inhibition (IC50) required 910 nM.
Under `CC(C)(NC(=O)N1CCOCC1)C(=O)Nc1nc(-c2ccc(F)cc2)c(Oc2ccc(F)cc2)s1` [Example 6-2, Morpholine-4-carboxylic acid {1-[5-(4-fluoro-phenoxy)-4-(4-fluoro-phenyl)-thiazol-2-ylcarbamoyl]-1-methyl-ethyl}-amide] stands 52.5 nM.
Under `CC(C)(NC(=O)c1cccnc1)C(=O)Nc1nc(-c2ccc(F)cc2)c(Oc2ccc(F)cc2)s1` [Example 6-9, N-{1-[5-(4-Fluoro-phenoxy)-4-(4-fluoro-phenyl)-thiazol-2-ylcarbamoyl]-1-methyl-ethyl}-nicotinamide] stands 622 nM; under `CC(C)(NC(=O)c1cncs1)C(=O)Nc1nc(-c2ccc(F)cc2)c(Oc2ccc(F)cc2)s1` [Example 6-14, Thiazole-5-carboxylic acid {1-[5-(4-fluoro-phenoxy)-4-(4-fluoro-phenyl)-thiazol-2-ylcarbamoyl]-1-methyl-ethyl}-amide], 197 nM; under `Cc1ccc(-c2cc(NC(=O)[C@@H]3CCCN3C(=O)OC(C)(C)C)nc(-c3ccccc3)c2)cc1` [Example 8-2, (S)-2-(6-Phenyl-4-p-tolyl-pyridin-2-ylcarbamoyl)-pyrrolidine-1-carboxylic acid tert-butyl ester], 240 nM.
Compound `CC1(C(=O)NC(C)(C)C(=O)Nc2nc(C(F)(F)F)c(C(=O)c3ccc(F)cc3)s2)CC1` [Example 12-3, 1-Methyl-cyclopropanecarboxylic acid {1-[5-(4-fluoro-benzoyl)-4-trifluoromethyl-thiazol-2-ylcarbamoyl]-1-methyl-ethyl}-amide] displayed an IC50 of 1180 nM.
Turning to `CC(C)(NC(=O)N1CCCOCC1)C(=O)Nc1nc(C(F)(F)F)c(C(=O)c2ccc(F)cc2)s1` [Example 12-4, [1,4]Oxazepane-4-carboxylic acid {1-[5-(4-fluoro-benzoyl)-4-trifluoromethyl-thiazol-2-ylcarbamoyl]-1-methyl-ethyl}-amide], the half-inhibitory concentration (IC50) was determined as 2080 nM.
To `CN1CCC[C@H]1C(=O)NC(C)(C)C(=O)Nc1nc(-c2ccc(F)cc2)n(Cc2ccccc2)n1` [Example 14-3, (S)-1-Methyl-pyrrolidine-2-carboxylic acid {1-[1-benzyl-5-(4-fluoro-phenyl)-1H-[1,2,4]triazol-3-ylcarbamoyl]-1-methyl-ethyl}-amide] belongs 2300 nM; to `CC(C)(NC(=O)c1ccccn1)C(=O)Nc1nc(-c2ccc(F)cc2)n(Cc2ccccc2)n1` [Example 14-4, Pyridine-2-carboxylic acid {1-[1-benzyl-5-(4-fluoro-phenyl)-1H-[1,2,4]triazol-3-ylcarbamoyl]-1-methyl-ethyl}-amide], 225 nM; to `CC(C)(NC(=O)c1cnco1)C(=O)Nc1nc(-c2ccc(F)cc2)n(Cc2ccccc2)n1` [Example 14-24, Oxazole-5-carboxylic acid {1-[1-benzyl-5-(4-fluoro-phenyl)-1H-[1,2,4]triazol-3-ylcarbamoyl]-1-methyl-ethyl}-amide], 1750 nM.
The compound `Cc1cc(C(=O)NC(C)(C)C(=O)Nc2nc(-c3ccc(F)cc3)n(Cc3ccccc3)n2)no1` [Example 14-28, 5-Methyl-isoxazole-3-carboxylic acid {1-[1-benzyl-5-(4-fluoro-phenyl)-1H-[1,2,4]triazol-3-ylcarbamoyl]-1-methyl-ethyl}-amide] had a 50% inhibitory concentration (IC50) of 6130 nM.

Values taken from patent publication US8703761B2, “Organic compounds” (Novartis AG, priority 2008, dated 2014).
